Test results published in US11034672B1, “Tyrosine kinase inhibitor compositions, methods of making and methods of use” (Black Diamond Therapeutics, Inc., priority 2018, dated 2021).

Legend:
Format in all cases: cell-based
EGFR V3 [1] = molecular target: T1, EGFR V3 (Homo sapiens, UniProt P00533, DELINS30-297G); test: Activity for inhibiting EGFR (Table A), EGFR V3 (EGFR-Viii); settings: read-out: EGFR V3, potency code (IC50)
T1 construct: expressed in transfected cells; host or cells: BaF3 (murine pro-B), retroviral pMXs-IRES-Blasticidin

HER2 S310F [2] = molecular target: T2, HER2 S310F (Homo sapiens, UniProt P04626, S310F); test: BaF3 cell proliferation assay, HER2 S310F (Table B); settings: potency code, 3 days, CellTiterGlo, read-out: HER2 S310F (Activity for Inhibiting HER2)
T2 construct: expressed in transfected cells; host or cells: BaF3 (murine pro-B)

EGFR WT [3] = molecular target: T3, EGFR WT (Homo sapiens, UniProt P00533); test: Activity for inhibiting EGFR (Table A), EGFR WT; settings: read-out: EGFR WT, potency code (IC50)
HER2 S310F [4] = molecular target: T2, HER2 S310F; test: Activity for inhibiting HER2 (Table B), HER2 S310F; settings: read-out: HER2 S310F, potency code (IC50)
Experimental: (§1) EC50 values were determined with the same application.

HER2 YVMA [5] = molecular target: T4, HER2 YVMA (Homo sapiens, UniProt P04626, INS775YVMA); test: Activity for inhibiting HER2 (Table B), HER2 YVMA; settings: read-out: HER2 YVMA, potency code (IC50)
T4 construct: expressed in transfected cells; host or cells: BaF3 (murine pro-B)
Experimental: as §1

EGFR V3 [6] = molecular target: T1, EGFR V3; test: BaF3 cell proliferation assay, EGFR V3 (Table A); settings: potency code, 3 days, CellTiterGlo, read-out: EGFR V3 (Activity for Inhibiting EGFR)
Experimental: (§2) Retroviral Production: EGFR mutants were subcloned into pMXs-IRES-Blasticidin (RTV-016, Cell Biolabs, San Diego, Calif.). Retroviral expression vector retrovirus was produced by transient transfection of HEK 293T cells with the retroviral EGFR mutant expression vector pMXs-IRES-Blasticidin (RTV-016, Cell Biolabs), pCMV-Gag-Pol vector and pCMV-VSV-G-Envelope vector. Briefly, HEK 293T/17 cells were plated in 100 mm collagen coated plate (354450, Corning Life Sciences, Tewksbury, Mass.) (4×10^5 per plate) and incubated overnight. The next day, retroviral plasmids (3 μg of EGFR mutant, 1.0 μg of pCMV-Gag-Pol and 0.5 μg pCMV-VSV-G) were mixed in 500 μl of Optimem (31985, Life Technologies). The mixture was incubated at room temperature for 5 min and then added to Optimem containing transfection reagent Lipofectamine (11668, Invitrogen) and incubated for 20 minutes. Mixture was then added dropwise to HEK 293T cells. The next day the medium was replaced with fresh culture medium and retrovirus was harvested @ 24 and 48 hrs.
(§3) Generation of EGFR mutant stable cell lines: BaF3 cells (1.5E5 cells) were infected with 1 ml of viral supernatant supplemented with 8 μg/ml polybrene by centrifuging for 30 min at 1000 rpm. Cells were placed in a 37° C. incubator overnight. Cells were then spun for 5 minutes to pellet the cells. Supernatant was removed and cells re-infected a fresh 1 ml of viral supernatant supplemented with 8 μg/ml polybrene by centrifuging for 30 min at 1000 rpm. Cells were placed in 37° C. incubator overnight. […] After 48 hours cells were selected for retroviral infection in 10 μg/ml Blasticidin for one week. Blasticidin resistant populations were washed twice in phosphate buffered saline before plating in media lacking IL-3 to select for IL-3 independent growth.
as §1

HER2 YVMA [7] = molecular target: T4, HER2 YVMA; test: BaF3 cell proliferation assay, HER2 YVMA (Table B); settings: potency code, 3 days, CellTiterGlo, read-out: HER2 YVMA (Activity for Inhibiting HER2)
EGFR WT [8] = molecular target: T3, EGFR WT; test: BaF3 cell proliferation assay, EGFR WT (Table A); settings: potency code, 3 days, CellTiterGlo, read-out: EGFR WT (Activity for Inhibiting EGFR)
Experimental: as §2, §3, §1

T1 sequence (P00533 with tags, fused parts or gaps DELINS30-297G): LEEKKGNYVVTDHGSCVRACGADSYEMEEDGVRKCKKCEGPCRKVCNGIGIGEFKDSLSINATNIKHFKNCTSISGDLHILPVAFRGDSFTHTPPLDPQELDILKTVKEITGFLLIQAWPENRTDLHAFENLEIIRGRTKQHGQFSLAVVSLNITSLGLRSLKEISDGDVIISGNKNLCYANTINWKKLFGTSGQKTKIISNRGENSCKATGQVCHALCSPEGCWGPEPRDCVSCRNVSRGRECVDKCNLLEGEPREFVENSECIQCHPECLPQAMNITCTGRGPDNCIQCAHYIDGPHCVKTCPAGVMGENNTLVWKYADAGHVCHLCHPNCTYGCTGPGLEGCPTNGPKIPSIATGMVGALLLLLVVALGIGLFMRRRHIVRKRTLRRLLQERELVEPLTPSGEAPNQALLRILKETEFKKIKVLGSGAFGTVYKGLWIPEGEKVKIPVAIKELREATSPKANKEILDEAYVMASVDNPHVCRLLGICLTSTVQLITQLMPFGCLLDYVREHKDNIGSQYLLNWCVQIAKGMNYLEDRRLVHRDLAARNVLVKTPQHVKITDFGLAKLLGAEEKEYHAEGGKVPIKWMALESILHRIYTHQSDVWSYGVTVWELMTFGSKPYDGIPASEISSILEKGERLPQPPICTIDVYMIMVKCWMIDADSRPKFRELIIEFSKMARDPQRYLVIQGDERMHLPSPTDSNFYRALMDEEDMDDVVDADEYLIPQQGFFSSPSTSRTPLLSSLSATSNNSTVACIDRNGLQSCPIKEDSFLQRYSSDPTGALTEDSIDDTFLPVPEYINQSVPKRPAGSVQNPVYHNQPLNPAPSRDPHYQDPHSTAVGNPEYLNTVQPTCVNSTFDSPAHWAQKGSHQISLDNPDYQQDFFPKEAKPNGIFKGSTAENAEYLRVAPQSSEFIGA
T4 sequence (P04626 with tags, fused parts or gaps INS775YVMA): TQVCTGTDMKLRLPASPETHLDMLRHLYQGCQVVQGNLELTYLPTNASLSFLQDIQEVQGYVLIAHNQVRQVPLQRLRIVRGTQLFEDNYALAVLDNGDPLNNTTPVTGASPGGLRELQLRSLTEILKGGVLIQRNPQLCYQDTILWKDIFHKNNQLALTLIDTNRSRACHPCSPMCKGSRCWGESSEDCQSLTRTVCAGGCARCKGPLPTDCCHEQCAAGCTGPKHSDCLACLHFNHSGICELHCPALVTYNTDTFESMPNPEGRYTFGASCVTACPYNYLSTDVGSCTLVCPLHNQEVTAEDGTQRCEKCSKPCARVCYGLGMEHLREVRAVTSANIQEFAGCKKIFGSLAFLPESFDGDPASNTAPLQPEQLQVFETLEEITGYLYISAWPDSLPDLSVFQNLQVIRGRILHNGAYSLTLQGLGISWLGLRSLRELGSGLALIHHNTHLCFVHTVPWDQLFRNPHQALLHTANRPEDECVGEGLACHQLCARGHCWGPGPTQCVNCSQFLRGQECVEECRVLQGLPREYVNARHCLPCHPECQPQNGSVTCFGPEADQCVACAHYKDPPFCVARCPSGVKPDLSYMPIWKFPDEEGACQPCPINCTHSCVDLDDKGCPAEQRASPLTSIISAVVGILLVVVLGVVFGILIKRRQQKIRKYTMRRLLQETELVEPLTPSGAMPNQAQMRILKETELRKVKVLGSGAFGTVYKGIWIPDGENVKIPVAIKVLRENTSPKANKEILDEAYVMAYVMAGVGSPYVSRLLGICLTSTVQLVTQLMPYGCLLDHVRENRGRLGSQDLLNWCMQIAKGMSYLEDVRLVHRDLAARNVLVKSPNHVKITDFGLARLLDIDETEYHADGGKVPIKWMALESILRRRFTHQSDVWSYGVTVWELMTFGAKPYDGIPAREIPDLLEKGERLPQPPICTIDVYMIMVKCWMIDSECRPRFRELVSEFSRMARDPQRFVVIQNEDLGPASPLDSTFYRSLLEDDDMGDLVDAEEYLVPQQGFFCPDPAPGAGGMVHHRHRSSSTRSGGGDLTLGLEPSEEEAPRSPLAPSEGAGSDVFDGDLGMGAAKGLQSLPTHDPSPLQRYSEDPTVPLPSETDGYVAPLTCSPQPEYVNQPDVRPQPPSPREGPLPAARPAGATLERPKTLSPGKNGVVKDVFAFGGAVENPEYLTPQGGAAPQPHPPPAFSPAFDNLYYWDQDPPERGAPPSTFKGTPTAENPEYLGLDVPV
T2 sequence (P04626 23-1255 S310F): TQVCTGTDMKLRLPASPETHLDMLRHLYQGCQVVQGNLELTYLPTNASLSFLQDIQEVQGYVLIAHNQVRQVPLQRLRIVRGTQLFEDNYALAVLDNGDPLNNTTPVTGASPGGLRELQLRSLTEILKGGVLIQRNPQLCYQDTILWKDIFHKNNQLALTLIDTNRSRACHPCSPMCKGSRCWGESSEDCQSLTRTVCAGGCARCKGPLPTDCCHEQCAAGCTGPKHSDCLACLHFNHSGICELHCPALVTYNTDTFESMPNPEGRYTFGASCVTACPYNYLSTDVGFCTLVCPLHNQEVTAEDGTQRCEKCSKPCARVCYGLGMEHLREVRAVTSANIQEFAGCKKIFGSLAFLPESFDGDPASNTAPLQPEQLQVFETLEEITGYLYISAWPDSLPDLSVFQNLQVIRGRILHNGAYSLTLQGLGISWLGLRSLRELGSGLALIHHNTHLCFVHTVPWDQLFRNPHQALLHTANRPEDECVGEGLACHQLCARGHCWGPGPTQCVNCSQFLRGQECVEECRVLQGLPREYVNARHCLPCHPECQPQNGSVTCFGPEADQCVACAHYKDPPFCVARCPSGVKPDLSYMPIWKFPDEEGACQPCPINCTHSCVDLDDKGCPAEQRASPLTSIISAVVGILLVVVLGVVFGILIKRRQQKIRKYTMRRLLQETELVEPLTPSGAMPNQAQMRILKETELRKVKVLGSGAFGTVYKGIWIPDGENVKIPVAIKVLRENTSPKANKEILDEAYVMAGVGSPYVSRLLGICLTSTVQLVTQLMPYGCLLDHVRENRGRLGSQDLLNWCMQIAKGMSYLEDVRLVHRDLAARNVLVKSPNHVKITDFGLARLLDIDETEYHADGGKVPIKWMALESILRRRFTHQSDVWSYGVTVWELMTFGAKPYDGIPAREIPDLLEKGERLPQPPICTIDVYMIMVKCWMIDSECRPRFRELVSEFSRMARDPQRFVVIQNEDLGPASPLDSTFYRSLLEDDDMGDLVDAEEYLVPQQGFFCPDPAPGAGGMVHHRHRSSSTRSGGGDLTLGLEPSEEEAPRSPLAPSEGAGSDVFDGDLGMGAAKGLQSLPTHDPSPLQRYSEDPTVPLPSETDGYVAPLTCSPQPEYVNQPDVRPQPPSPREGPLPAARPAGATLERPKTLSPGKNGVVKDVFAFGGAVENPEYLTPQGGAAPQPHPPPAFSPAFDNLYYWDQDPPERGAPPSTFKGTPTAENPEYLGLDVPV
T3 sequence (P00533 25-1210 N540K): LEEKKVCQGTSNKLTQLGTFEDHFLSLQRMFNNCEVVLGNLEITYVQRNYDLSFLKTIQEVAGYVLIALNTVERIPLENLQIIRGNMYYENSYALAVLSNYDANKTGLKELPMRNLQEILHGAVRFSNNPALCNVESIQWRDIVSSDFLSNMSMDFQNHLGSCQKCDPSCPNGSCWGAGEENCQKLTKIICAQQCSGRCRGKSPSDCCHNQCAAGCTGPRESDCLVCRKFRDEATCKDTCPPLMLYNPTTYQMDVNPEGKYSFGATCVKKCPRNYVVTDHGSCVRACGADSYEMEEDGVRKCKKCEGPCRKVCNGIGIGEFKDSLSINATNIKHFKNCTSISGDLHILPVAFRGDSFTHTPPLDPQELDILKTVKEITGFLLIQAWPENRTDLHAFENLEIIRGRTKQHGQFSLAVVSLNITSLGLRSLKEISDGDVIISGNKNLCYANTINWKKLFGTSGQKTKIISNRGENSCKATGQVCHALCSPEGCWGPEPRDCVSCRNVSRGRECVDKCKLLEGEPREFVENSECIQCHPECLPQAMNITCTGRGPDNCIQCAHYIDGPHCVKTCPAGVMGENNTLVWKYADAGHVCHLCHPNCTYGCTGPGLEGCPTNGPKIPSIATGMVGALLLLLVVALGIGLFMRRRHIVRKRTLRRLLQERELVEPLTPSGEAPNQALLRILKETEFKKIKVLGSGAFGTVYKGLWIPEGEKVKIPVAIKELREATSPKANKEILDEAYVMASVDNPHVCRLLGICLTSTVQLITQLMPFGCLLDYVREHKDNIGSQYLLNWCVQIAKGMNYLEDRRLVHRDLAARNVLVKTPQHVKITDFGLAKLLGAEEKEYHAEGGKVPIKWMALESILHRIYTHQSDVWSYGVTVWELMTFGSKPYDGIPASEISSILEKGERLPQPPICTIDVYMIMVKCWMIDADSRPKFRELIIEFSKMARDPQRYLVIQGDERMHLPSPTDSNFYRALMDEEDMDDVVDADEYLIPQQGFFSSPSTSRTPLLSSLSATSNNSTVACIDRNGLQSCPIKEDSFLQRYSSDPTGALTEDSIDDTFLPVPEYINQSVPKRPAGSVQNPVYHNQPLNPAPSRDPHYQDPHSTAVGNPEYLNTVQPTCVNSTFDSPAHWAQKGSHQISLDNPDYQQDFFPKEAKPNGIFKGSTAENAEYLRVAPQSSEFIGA

Row | Compound | IC50 (EGFR V3 [1]) [nM] | IC50 (HER2 S310F [2]) [nM] | IC50 (EGFR WT [3]) [nM] | IC50 (HER2 S310F [4]) [nM] | IC50 (HER2 YVMA [5]) [nM] | IC50 (EGFR V3 [6]) [nM] | IC50 (HER2 YVMA [7]) [nM] | IC50 (EGFR WT [8]) [nM]
1 | C=CC(=O)Nc1cc2c(Nc3ccc(OCc4ccccn4)c(Cl)c3)ncnc2cc1C#CC(C)(C)NC [compound 88, N-(4-((3-chloro-4-(pyridin-2-ylmethoxy)phenyl)amino)-7-(3-methyl-3-(methylamino)but-1-yn-1-yl)quinazolin-6-yl)acrylamide] | 30 to 50 | 10 to 20 | 500 to 1000 | 10 to 20 | 100 to 200 | 30 to 50 | 100 to 200 | 500 to 1000
2 | C=CC(=O)Nc1cc2c(Nc3ccc(OCc4ccccn4)c(Cl)c3)ncnc2cc1OCC1(CN(C)C)CC1 [compound 98, N-(4-((3-chloro-4-(pyridin-2-ylmethoxy)phenyl)amino)-7-((1-((dimethylamino)methyl)cyclopropyl)methoxy)quinazolin-6-yl)acrylamide] | 30 to 50 | 20 to 30 | 200 to 300 | 20 to 30 | 200 to 300 | 30 to 50 | 200 to 300 | 200 to 300
3 | C=CC(=O)Nc1cc2c(Nc3ccc(OCc4cccc(OC(F)(F)F)n4)c(Cl)c3)ncnc2cc1OCCN1CCOCC1 [compound 24] | 200 to 300 | 200 to 300 | > 1000 | 200 to 300 | 300 to 500 | 200 to 300 | 300 to 500 | > 1000
4 | C=CC(=O)Nc1cc2c(Nc3cnc(NCc4ccccn4)c(Cl)c3)ncnc2cc1OCCN1CCOCC1 [compound 97, N-(4-((5-chloro-6-((pyridin-2-ylmethyl)amino)pyridin-3-yl)amino)-7-(2-morpholinoethoxy)quinazolin-6-yl)acrylamide] | 50 to 100 | 200 to 300 | 500 to 1000 | 200 to 300 | 500 to 1000 | 50 to 100 | 500 to 1000 | 500 to 1000
5 | C=CC(=O)Nc1cc2c(Nc3ccc(OCc4ccccn4)c(Cl)c3)ncnc2cc1OCC12CCC(CC1)N2C [compound 122, N-(4-((3-chloro-4-(pyridin-2-ylmethoxy)phenyl)amino)-7-((7-methyl-7-azabicyclo[2.2.1]heptan-1-yl)methoxy)quinazolin-6-yl)acrylamide] | 50 to 100 | 100 to 200 | 500 to 1000 | 100 to 200 | 500 to 1000 | 50 to 100 | 500 to 1000 | 500 to 1000
6 | C=CC(=O)Nc1cc2c(Nc3ccc(OCc4ccccn4)nc3)ncnc2cc1O[C@@H]1CCN(C)C1 [compound 72] | 300 to 500 | 300 to 500 | > 1000 | 300 to 500 | > 1000 | 300 to 500 | > 1000 | > 1000
7 | C=CC(=O)Nc1cc2c(Nc3ccc(OCc4ccccn4)c(Cl)c3)ncnc2cc1OC[C@H]1CCN(C)C1 [compound 101, N-(4-((3-chloro-4-(pyridin-2-ylmethoxy)phenyl)amino)-7-((1-methylpyrrolidin-3-yl)methoxy)quinazolin-6-yl)acrylamide] | 10 to 20 | 10 to 20 | 100 to 200 | 10 to 20 | 30 to 50 | 10 to 20 | 30 to 50 | 100 to 200
8 | C=CC(=O)Nc1cc2c(Nc3ccc(OCc4ccccn4)c(Cl)c3)ncnc2cc1OCCN1CCC(O)CC1 [compound 111, N-(4-((3-chloro-4-(pyridin-2-ylmethoxy)phenyl)amino)-7-(2-(4-hydroxypiperidin-1-yl)ethoxy)quinazolin-6-yl)acrylamide] | 30 to 50 | 30 to 50 | 300 to 500 | 30 to 50 | 100 to 200 | 30 to 50 | 100 to 200 | 300 to 500

Results, then the molecule that gave them:

Row | IC50 (EGFR V3 [1]) [nM] | IC50 (HER2 S310F [2]) [nM] | IC50 (EGFR WT [3]) [nM] | IC50 (HER2 S310F [4]) [nM] | IC50 (HER2 YVMA [5]) [nM] | IC50 (EGFR V3 [6]) [nM] | IC50 (HER2 YVMA [7]) [nM] | IC50 (EGFR WT [8]) [nM] | Compound
9 | 50 to 100 | 30 to 50 | > 1000 | 30 to 50 | 200 to 300 | 50 to 100 | 200 to 300 | > 1000 | C=CC(=O)Nc1cc2c(Nc3ccc(OCc4cccnn4)c(Cl)c3)ncnc2cc1OCCN1CC2CCC(C1)O2 [compound 173]
10 | 100 to 200 | 30 to 50 | 100 to 200 | 30 to 50 | 100 to 200 | 100 to 200 | 100 to 200 | 100 to 200 | C=CC(=O)Nc1cc2c(Nc3ccc(OCc4cccc(F)c4)c(Cl)c3)ncnc2cc1OCCCN1CC(OC)C1 [compound 144]
11 | 100 to 200 | 30 to 50 | 200 to 300 | 30 to 50 | 300 to 500 | 100 to 200 | 300 to 500 | 200 to 300 | C=CC(=O)Nc1cc2c(Nc3ccc(OCc4cccc(F)c4)c(Cl)c3)ncnc2cc1OCCN1CCN(C)CC1 [compound 130]
12 | 30 to 50 | 30 to 50 | 300 to 500 | 30 to 50 | 100 to 200 | 30 to 50 | 100 to 200 | 300 to 500 | C=CC(=O)Nc1cc2c(Nc3ccc(OCc4cccc(F)n4)c(Cl)c3)ncnc2cc1OCCCN1C[C@H]2C[C@@H]1CO2 [compound 162]
13 | 50 to 100 | 50 to 100 | > 1000 | 50 to 100 | 300 to 500 | 50 to 100 | 300 to 500 | > 1000 | C=CC(=O)Nc1cc2c(Nc3ccc(OCc4cccnn4)c(Cl)c3)ncnc2cc1OCCN1CCOCC1 [compound 171]
14 | 50 to 100 | 20 to 30 | 50 to 100 | 20 to 30 | 50 to 100 | 50 to 100 | 50 to 100 | 50 to 100 | CC#CC(=O)Nc1cc2c(Nc3cc(Cl)c(OCc4cccc(F)c4)cc3F)ncnc2cc1OCCN1CCN(C)CC1 [compound 146, N-(4-((5-chloro-2-fluoro-4-((3-fluorobenzyl)oxy)phenyl)amino)-7-(2-(4-methylpiperazin-1-yl)ethoxy)quinazolin-6-yl)but-2-ynamide]
15 | 50 to 100 | 50 to 100 | 200 to 300 | 50 to 100 | 300 to 500 | 50 to 100 | 300 to 500 | 200 to 300 | C=CC(=O)Nc1cc2c(Nc3ccc(OCc4cccc(C)n4)c(Cl)c3)ncnc2cc1OCCN1CCN(C)CC1 [compound 137]
16 | 30 to 50 | 10 to 20 | 100 to 200 | 10 to 20 | 50 to 100 | 30 to 50 | 50 to 100 | 100 to 200 | CC#CC(=O)Nc1cc2c(Nc3ccc(OCc4cccnn4)c(Cl)c3)ncnc2cc1OCCCN1CCOCC1 [compound 165, N-(4-((3-chloro-4-(pyridazin-3-ylmethoxy)phenyl)amino)-7-(3-morpholinopropoxy)quinazolin-6-yl)but-2-ynamide]
17 | 50 to 100 | 30 to 50 | 100 to 200 | 30 to 50 | 50 to 100 | 50 to 100 | 50 to 100 | 100 to 200 | C=CC(=O)Nc1cc2c(Nc3ccc(OCc4cccc(C)n4)c(Cl)c3)ncnc2cc1OCCCN1CC(OC)C1 [compound 138]
18 | 50 to 100 | 10 to 20 | 100 to 200 | 10 to 20 | 100 to 200 | 50 to 100 | 100 to 200 | 100 to 200 | CC#CC(=O)Nc1cc2c(Nc3cc(Cl)c(OCc4cccc(F)c4)cc3F)ncnc2cc1O[C@@H]1CCN(C)C1 [compound 151, (R)-N-(4-((5-chloro-2-fluoro-4-((3-fluorobenzyl)oxy)phenyl)amino)-7-((1-methylpyrrolidin-3-yl)oxy)quinazolin-6-yl)but-2-ynamide]
19 | 30 to 50 | 10 to 20 | 500 to 1000 | 10 to 20 | 30 to 50 | 30 to 50 | 30 to 50 | 500 to 1000 | C=CC(=O)Nc1cc2c(Nc3ccc(OCc4cnccn4)c(Cl)c3)ncnc2cc1OCCCN1CC(OC)C1 [compound 179]
